# Test results published in ChEMBL document CHEMBL1150946, “Antipruritic dinaphthofuran-7,12-dione derivatives from the pericarp of Impatiens balsamina” (J Nat Prod, 1998).
# The source made the active and inactive calls. No cut-off for these calls is given here.
# Test system: Mus musculus
# Test: Antipruritic activity in ddY mouse assessed as inhibition of compound 48/80-induced nose scratching behavior at 10 mg/kg, po for 20 mins preincubated 24 hrs before compound 48/80 challenge
# Assay type: functional, organism-based
# Design: dose 10 mg/kg
row,SMILES,Activity
1,COC1=CC(=O)c2ccccc2C1=O,Active
2,COc1c(O[C@@H]2O[C@H](CO)[C@@H](O)[C@H](O)[C@H]2O)c2ccccc2c2oc3c(c12)C(=O)c1ccccc1C3=O,Active
